From patent US20230095021A1, “MODULATORS OF TDP-43” (Alteron Therapeutics, Inc., priority 2019, published 2023)

Key:
Phe508del-CFTR = Phe508del-CFTR localization, immunofluorescence microscopy, primary bronchial epithelial cells of a cystic fibrosis patient; format: cell-based, human; details: primary bronchial epithelial cells homozygous for Phe508del-CFTR, 3 days
Experimental: MDA-MB-231 and U-87 MG cells were cultured on cover slips under the conditions as described above. Cells were treated with DMSO or 4 μM ALT-59 for 3 days. Primary human bronchial epithelial cells isolated from cystic fibrosis patient homozygous for Phe508del-CFTR (Lifeline Cell Technology) were cultured on cover slips in BronchiaLife Cell Culture Medium supplemented with BrochiaLife LifeFactors Kit (Lifeline Cell Technology) and maintained at 37° C. in a CO2 incubator. Cells were treated with DMSO, 4 μM ALT-59, 2 μM ALT-308, or 4 μM ALT-410 for 3 days.
Cells were fixed in 4% paraformaldehyde for 15 minutes and permeabilized in 0.1% Triton X-100 for 2 minutes. After being blocked in 5% BSA (Sigma-Aldrich), cells were incubated with anti-CFTR antibody (Alomone Labs) followed by Alexa Fluor 488 anti-rabbit secondary antibody. Reagents were buffered in GIBCO PBS (Phosphate-Buffered Saline). Images were taken using Carl Zeiss LSM 510 Laser Scanning Microscope. Parameters were set identical for all images.

BACE1 = assay: Screening for ALT-59 derivatives with BACE1 protein levels as indicator, U-87 MG cells; format: cell-based; details: 2 days, concentrations as indicated in FIGS. 15-17
Experimental: Additional experiments were performed to screen for compounds with higher potency and the ability to penetrate blood brain barrier using BACE1 protein levels as an indicator. U-87 MG cells were cultured as described previously and treated for 2 days with compounds at concentrations as indicated in FIGS. 15-17. Cells were then subjected to Western blotting analysis using anti-BACE1 and anti-beta-actin antibodies.

SMILES | localization of Phe508del-CFTR on the plasma membrane (Phe508del-CFTR; 2 μM) | BACE1 protein expression (BACE1) | localization of Phe508del-CFTR on the plasma membrane (Phe508del-CFTR; 4 μM)
CC1(C)CC(=O)C2=C(C1)c1c(ccc3ccccc13)NC2c1ccc(C(C)(C)C)cc1 (stereo not drawn) [ALT-308, 5-(4-(tert-butyl)phenyl)-2,2-dimethyl-2,3,5,6-tetrahydrobenzo[a]phenanthridin-4(1H)-one] | increased localization of Phe508del-CFTR on the plasma membrane | capable of lowering BACE1 expression | –
CCCOc1ccc(C2Nc3ccc4ccccc4c3C3=C2C(=O)CCC3)cc1 (stereo not drawn) [ALT-410, 5-(4-propoxyphenyl)-2,3,5,6-tetrahydrobenzo[a]phenanthridin-4(1H)-one] | – | capable of lowering BACE1 expression | increased localization of Phe508del-CFTR on the plasma membrane
CC1(C)CC(=O)C2=C(C1)c1c(ccc3ccccc13)NC2c1ccc(Cl)c(Cl)c1 (stereo not drawn) [ALT-204, 5-(3,4-dichlorophenyl)-2,2-dimethyl-2,3,5,6-tetrahydrobenzo[a]phenanthridin-4(1H)-one] | – | capable of lowering BACE1 expression | –
COC(=O)COc1ccc(C2Nc3ccc4ccccc4c3C3=C2C(=O)CCC3)cc1 (stereo not drawn) [ALT-411, methyl 2-(4-(4-oxo-1,2,3,4,5,6-hexahydrobenzo[a]phenanthridin-5-yl)phenoxy)acetate] | – | capable of lowering BACE1 expression | –
COc1ccc(C2Nc3ccc4ccccc4c3C3=C2C(=O)CC(C)(C)C3)cc1Br (stereo not drawn) [ALT-307, 5-(3-bromo-4-methoxyphenyl)-2,2-dimethyl-2,3,5,6-tetrahydrobenzo[a]phenanthridin-4(1H)-one] | – | capable of lowering BACE1 expression | –
CC1(C)CC(=O)C2=C(C1)c1cc3ccccc3cc1NC2c1ccc2c(c1)OCO2 (stereo not drawn) [ALT-205, 5-(benzo[d][1,3]dioxol-5-yl)-2,2-dimethyl-2,3,5,6-tetrahydrobenzo[b]phenanthridin-4(1H)-one] | – | capable of lowering BACE1 expression | –
CSc1ccc(C2Nc3ccc4ccccc4c3C3=C2C(=O)CC(C)(C)C3)cc1 (stereo not drawn) [ALT-311, 2,2-dimethyl-5-(4-(methylthio)phenyl)-2,3,5,6-tetrahydrobenzo[a]phenanthridin-4(1H)-one] | – | capable of lowering BACE1 expression | –
